Results published in ChEMBL document CHEMBL3045730, “An efficient anticancer histone deacetylase inhibitor and its analogues for human HDAC8” (Med Chem Res, 2012).

target: T1, Histone deacetylase 8 (Homo sapiens, UniProt Q9BY41); assay: Inhibition of Homo sapiens (human) HDAC8
T1 sequence (Q9BY41 whole entry): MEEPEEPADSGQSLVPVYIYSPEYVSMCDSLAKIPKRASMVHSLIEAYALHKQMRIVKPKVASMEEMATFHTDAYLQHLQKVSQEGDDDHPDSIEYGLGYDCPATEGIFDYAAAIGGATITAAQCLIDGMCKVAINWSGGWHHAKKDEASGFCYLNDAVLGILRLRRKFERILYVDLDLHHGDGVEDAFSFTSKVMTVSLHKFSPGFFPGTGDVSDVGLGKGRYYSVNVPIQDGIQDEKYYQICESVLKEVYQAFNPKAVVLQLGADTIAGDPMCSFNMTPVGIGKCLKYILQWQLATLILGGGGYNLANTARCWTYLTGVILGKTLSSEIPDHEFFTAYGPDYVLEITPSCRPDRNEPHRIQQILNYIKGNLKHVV

Compound	IC50
Nc1ccc(F)cc1NC(=O)c1ccc(CNC(=O)OCc2cccnc2)cc1	6000 nM
O=C(/C=C/c1ccc(NS(=O)(=O)c2ccc(Cl)cc2Cl)cc1)NO	300 nM
O=C(/C=C/c1ccc(Cc2ccc(CO)cc2)cc1)NO	20 nM
COc1ccc(CS(=O)(=O)Nc2ccc(/C=C\C(=O)NO)cc2)cc1	60 nM
Cn1cc(C=O)cc1CCC(=O)NO	52600 nM
Cn1cc(C=O)cc1/C=C/C(=O)NO	12300 nM
Cc1cccc(NC(=O)c2ccc(CNC(=O)OCc3cccnc3)cc2)c1N	> 100000 nM
COc1ccc(NC(=O)c2ccc(CNC(=O)OCc3cccnc3)cc2)c(N)c1	44000 nM
O=C(/C=C/c1ccc(NS(=O)(=O)c2ccc(Cl)c(Cl)c2)cc1)NO	100 nM
O=C(/C=C/c1ccc(Cc2ccc(O)c(Cl)c2)cc1)NO	460 nM
Cn1cc(C(=O)Cl)cc1/C=C/C(=O)NO	9650 nM
COc1ccc(CS(=O)(=O)Nc2ccc(/C=C\C(=O)NO)cc2)cc1OC	90 nM
CC(C)c1cc(C(C)C)c(C(C)C)cc1CS(=O)(=O)Nc1ccc(/C=C\C(=O)NO)cc1	600 nM
Nc1cc(Cl)ccc1NC(=O)c1ccc(CNC(=O)OCc2cccnc2)cc1	40000 nM
O=C(NCc1ccc(C(=O)Nc2ccccc2)cc1)OCc1cccnc1	> 100000 nM
O=C(Cc1ccc(NS(=O)(=O)c2ccccc2)cc1)NO	900 nM

Compound	IC50
O=C(NCc1ccc(C(=O)Nc2ccccc2O)cc1)OCc1cccnc1	2200 nM
Cc1ccc(NC(=O)c2ccc(CNC(=O)OCc3cccnc3)cc2)c(N)c1	> 100000 nM
Nc1ccc(NC(=O)c2ccc(CNC(=O)OCc3cccnc3)cc2)cc1	> 100000 nM
O=C(CCc1ccc(NS(=O)(=O)c2ccccc2)cc1)NO	100 nM
C/C(=C\Cc1ccc(NS(=O)(=O)c2ccccc2)cc1)CC(=O)NO	2000 nM
Nc1cccc(NC(=O)c2ccc(CNC(=O)OCc3cccnc3)cc2)c1	> 100000 nM
CC(=O)c1cc(/C=C/C(=O)NO)n(C)c1	11300 nM
COc1ccc(N)c(NC(=O)c2ccc(CNC(=O)OCc3cccnc3)cc2)c1	4600 nM
Cc1ccc(S(=O)(=O)Nc2ccc(/C=C/C(=O)NO)cc2)cc1	300 nM
Nc1ccc(Cl)cc1NC(=O)c1ccc(CNC(=O)OCc2cccnc2)cc1	7700 nM
CC(C)(C)c1ccc(CS(=O)(=O)Nc2ccc(/C=C\C(=O)NO)cc2)cc1	100 nM
O=C(/C=C/c1cccc(-c2ccc(O)cc2)c1)NO	320 nM
CC(=O)Nc1ccccc1NC(=O)c1ccc(CNC(=O)OCc2cccnc2)cc1	> 100000 nM
Cc1ccc(N)c(NC(=O)c2ccc(CNC(=O)OCc3cccnc3)cc2)c1	2800 nM
O=C(CCc1ccc(-c2ccc(O)cc2)cc1)NO	1700 nM

Second part, the molecule after the results:

IC50	Compound
153 nM	O=C(CCCCCCCC(=O)c1cccnc1)NO
1500 nM	O=C(CCCCCC(=O)c1ccccc1)NO
450 nM	COc1ccc(C(=O)CCCCCCC(=O)NO)cc1
8.5 nM	O=C(CCCCCCC/C(=N\O)c1ccc2ccccc2c1)NO
600 nM	CC(CCCCCC(=O)c1ccc2ccccc2c1)C(=O)NOCCCCC(=O)NO (stereo unspecified)
4 nM	O=C(CCCCCCC/C(=N\O)c1ccc(-c2ccccc2)cc1)NO
95 nM	COc1ccccc1C(=O)CCCCCCCC(=O)NO
35 nM	O=C(CCCCCCC(=O)c1ccc2ccccc2c1)NO
45 nM	O=C(CCCCCCCC(=O)c1ccc(Br)cc1)NO
65 nM	O=C(CCCCCCCC(=O)c1ccccc1)NO
6 nM	O=C(CCCCCC/C=C/c1ccc2ccccc2c1)NO
5 nM	O=C(CCCCCCCC(=O)c1ccc(-c2ccccc2)cc1)NO
45 nM	O=C(CCCCCCCC(=O)c1ccc(C(F)(F)F)cc1)NO
1000 nM	O=C(NO)c1ccc(CCCc2ccccc2)cc1
135 nM	O=C(CCCCCCCCC(=O)c1ccccc1)NO
35 nM	O=C(CCCCCCCC(O)c1ccc2ccccc2c1)NO (stereo unspecified)
4.5 nM	O=C(CCCCCCCC(=O)c1ccc(N2CCN(c3ccccc3)CC2)cc1)NO
> 5000 nM	O=C(/C=C/C=C/c1ccc(-c2ccccc2)cc1)NO
15 nM	COc1ccc(C(=O)CCCCCCCC(=O)NO)cc1
71.4 nM	O=C(CCCCCCCN1C(=O)c2ccccc2C1=O)NO
500 nM	O=C(CCCCCCC(=O)c1ccccc1)NO
25 nM	O=C(CCCCCCCCc1ccc2ccccc2c1)NO
2 nM	O=C(CCCCCCCC(=O)c1ccc(-c2ccc(Br)cc2)cc1)NO
8 nM	C=C(CCCCCCCC(=O)NO)c1ccc2ccccc2c1
9.5 nM	O=C(CCCCCCCC(=O)c1ccc(N2CCCCC2)cc1)NO
